Data on one molecule can be found in patent publication US6432934B1, “Methods and compositions for topical treatment of eye surface inflammation and related dry eye disease” (Advanced Vision Research, priority 1998, dated 2002).

The test system of assay [1] is rabbit model for meibomianitis/meibomian gland dysfunction. The experiment in a line: Conjunctival goblet-cell density, rabbit model for meibomianitis/meibomian gland dysfunction. In kind it is in vivo, New Zealand white rabbits. The settings on record: intramuscular 50 mg/kg/d, five days each week, weeks 8-20 post-op.
For assay [2] the test system is unchanged. Nature of the assay: Corneal epithelial glycogen level, rabbit model for meibomianitis/meibomian gland dysfunction. In kind it is in vivo, New Zealand white rabbits. The settings on record: intramuscular 50 mg/kg/d, five days each week, weeks 8-20 post-op.

Consider `CN(C)[C@@H]1C(O)=C(C(N)=O)C(=O)[C@@]2(O)C(O)=C3C(=O)c4c(O)cccc4[C@@](C)(O)[C@H]3C[C@@H]12.Cl` [systemic tetracycline, tetracycline hydrochloride], for which, in assay [1], the “effect on conjunctival goblet-cell density” value is given as “no effect”. The “effect on corneal glycogen” value in assay [2] was “no effect”.
